Drawing on patent US11292796B2 (SIGNAL PHARMACEUTICALS, LLC, priority 2008, dated 2022), this text covers IC50 for 32 compounds.

The target of this assay is T1, mTOR (Homo sapiens, UniProt P42345).
T1 construct: purchased Invitrogen PR8683A
Description: mTOR HTR-FRET assay. The note with it: read-out: Act. Level (IC50 in mTor HTR-FRET assay). The format is biochemical. The protocol: The following is an example of an assay that can be used to determine the mTOR inhibitory activity of a test compound. Heteroaryl Compounds were dissolved in DMSO and prepared as 10 mM stocks and diluted appropriately for the experiments. Reagents were prepared as follows:
“Simple TOR buffer” (used to dilute high glycerol TOR fraction): 10 mM Tris pH 7.4, 100 mM NaCl, 0.1% Tween-20, 1 mM DTT. Invitrogen mTOR (cat #PR8683A) was diluted in this buffer to an assay concentration of 0.200 μg/mL.
To 20 μL of the Simple mTor buffer is added 0.5 μL of test compound in DMSO. To initiate the reaction 5 μL of ATP/Substrate solution was added to 20 μL of the Simple TOR buffer solution (control) and to the compound solution prepared above.

As usually defined, the IC50 is the concentration at which inhibition is half-maximal.

T1 sequence (P42345 1360-2549 limits assumed): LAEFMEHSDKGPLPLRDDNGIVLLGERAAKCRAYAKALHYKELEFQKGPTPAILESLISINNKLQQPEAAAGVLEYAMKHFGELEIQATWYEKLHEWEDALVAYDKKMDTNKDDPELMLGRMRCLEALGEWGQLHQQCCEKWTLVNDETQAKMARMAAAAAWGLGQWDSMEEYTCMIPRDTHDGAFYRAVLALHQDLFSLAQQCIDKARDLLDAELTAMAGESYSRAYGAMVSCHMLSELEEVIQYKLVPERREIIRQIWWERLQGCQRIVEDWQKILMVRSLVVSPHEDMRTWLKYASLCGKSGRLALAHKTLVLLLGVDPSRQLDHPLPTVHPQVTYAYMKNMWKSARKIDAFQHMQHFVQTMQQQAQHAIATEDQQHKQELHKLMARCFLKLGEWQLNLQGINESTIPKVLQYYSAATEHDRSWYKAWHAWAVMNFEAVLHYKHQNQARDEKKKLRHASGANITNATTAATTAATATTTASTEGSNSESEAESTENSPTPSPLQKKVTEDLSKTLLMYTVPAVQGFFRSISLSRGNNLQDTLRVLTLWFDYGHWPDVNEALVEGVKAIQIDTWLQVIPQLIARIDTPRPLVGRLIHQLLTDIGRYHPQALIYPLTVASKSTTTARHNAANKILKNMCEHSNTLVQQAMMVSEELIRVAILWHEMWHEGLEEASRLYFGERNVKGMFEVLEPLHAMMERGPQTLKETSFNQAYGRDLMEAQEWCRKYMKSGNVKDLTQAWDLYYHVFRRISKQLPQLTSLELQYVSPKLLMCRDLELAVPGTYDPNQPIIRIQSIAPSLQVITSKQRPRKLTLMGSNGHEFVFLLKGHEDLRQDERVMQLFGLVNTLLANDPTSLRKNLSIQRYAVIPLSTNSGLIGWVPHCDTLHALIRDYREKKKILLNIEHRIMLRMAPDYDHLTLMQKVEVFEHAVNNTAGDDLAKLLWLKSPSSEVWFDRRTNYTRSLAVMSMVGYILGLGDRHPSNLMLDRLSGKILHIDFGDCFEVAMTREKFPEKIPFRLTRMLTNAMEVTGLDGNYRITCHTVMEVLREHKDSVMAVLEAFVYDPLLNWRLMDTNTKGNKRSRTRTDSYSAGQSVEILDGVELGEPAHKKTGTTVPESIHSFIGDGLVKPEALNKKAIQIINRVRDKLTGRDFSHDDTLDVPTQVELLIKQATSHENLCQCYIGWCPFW

`CO[C@H]1CC[C@H](CN2CC(=O)Nc3ncc(-c4ccc(-c5nc[nH]n5)nc4)nc32)CC1` [Example 5]: the half-maximal inhibitory concentration (IC50) is 0.005 to 250 nM.
Take `CO[C@H]1CC[C@@H](CN2CC(=O)Nc3ncc(-c4ccc(-c5nc[nH]n5)nc4)nc32)CC1` [Example 7]: the IC50 lay in the range of 0.005 to 250 nM.
Take `CO[C@H]1CC[C@H](N2CC(=O)Nc3ncc(-c4ccc(-c5nc[nH]n5)nc4)nc32)CC1` [Example 12]: the IC50 fell in the range of 0.005 to 250 nM.
As for `COCCN1CC(=O)Nc2ncc(-c3ccc(-c4nc[nH]n4)nc3)nc21` [Example 16], the figure is 0.005 to 250 nM; as for `O=C1CN(C2CCOCC2)c2nc(-c3ccc(-c4nc[nH]n4)nc3)cnc2N1` [Example 21, 6-(6-(1H-1,2,4-triazol-3-yl)pyridin-3-yl)-4-(tetrahydro-2H-pyran-4-yl)-3,4-dihydropyrazino[2,3-b]pyrazin-2(1H)-one], 0.005 to 250 nM; as for `CCN1CC(=O)Nc2ncc(-c3ccc(-c4nc[nH]n4)nc3)nc21` [Example 22, 6-(6-(1H-1,2,4-triazol-3-yl)pyridin-3-yl)-4-ethyl-3,4-dihydropyrazino[2,3-b]pyrazin-2(1H)-one], 0.005 to 250 nM.
As for `Cc1cc(-c2nc[nH]n2)c(F)cc1-c1cnc2c(n1)N([C@H]1CC[C@H](O)CC1)CC(=O)N2` [Example 23, 6-(5-fluoro-2-methyl-4-(1H-1,2,4-triazol-3-yl)phenyl)-4-(trans-4-hydroxycyclohexyl)-3,4-dihydropyrazino[2,3-b]pyrazin-2(1H)-one], the figure is 0.005 to 250 nM; as for `Cc1cc(-c2nc[nH]n2)c(F)cc1-c1cnc2c(n1)N(C1CCOCC1)CC(=O)N2` [Example 24, 6-(5-fluoro-2-methyl-4-(1H-1,2,4-triazol-3-yl)phenyl)-4-(tetrahydro-2H-pyran-4-yl)-3,4-dihydropyrazino[2,3-b]pyrazin-2(1H)-one], 0.005 to 250 nM.
As for `Cc1cc(-c2nc[nH]n2)c(F)cc1-c1cnc2c(n1)N(C(C)C)CC(=O)N2` [Example 25, 6-(5-fluoro-2-methyl-4-(1H-1,2,4-triazol-3-yl)phenyl)-4-isopropyl-3,4-dihydropyrazino[2,3-b]pyrazin-2(1H)-one], the figure is 0.005 to 250 nM; as for `CCN1CC(=O)Nc2ncc(-c3cc(F)c(-c4nc[nH]n4)cc3C)nc21` [Example 26, 4-ethyl-6-(5-fluoro-2-methyl-4-(1H-1,2,4-triazol-3-yl)phenyl)-3,4-dihydropyrazino[2,3-b]pyrazin-2(1H)-one], 0.005 to 250 nM.
Regarding `Cc1c(-c2cnc3c(n2)N(C2CCOCC2)CC(=O)N3)ccc(-c2nc[nH]n2)c1F` [Example 27, 6-(3-fluoro-2-methyl-4-(1H-1,2,4-triazol-3-yl)phenyl)-4-(tetrahydro-2H-pyran-4-yl)-3,4-dihydropyrazino[2,3-b]pyrazin-2(1H)-one], the IC50 fell in the range of 0.005 to 250 nM.
With `CO[C@H]1CC[C@@H](N2CC(=O)Nc3ncc(-c4ccc(-c5nc[nH]n5)c(F)c4C)nc32)CC1` [Example 28, 6-(3-fluoro-2-methyl-4-(1H-1,2,4-triazol-3-yl)phenyl)-4-(cis-4-methoxycyclohexyl)-3,4-dihydropyrazino[2,3-b]pyrazin-2(1H)-one] the figure was 0.005 to 250 nM; with `CO[C@H]1CC[C@H](N2CC(=O)Nc3ncc(-c4ccc(-c5nc[nH]n5)c(F)c4C)nc32)CC1` [Example 29, 6-(3-fluoro-2-methyl-4-(1H-1,2,4-triazol-3-yl)phenyl)-4-(trans-4-methoxycyclohexyl)-3,4-dihydropyrazino[2,3-b]pyrazin-2(1H)-one], 0.005 to 250 nM.
As for `COCCN1CC(=O)Nc2ncc(-c3cnc(-c4nc[nH]n4)cc3C)nc21` [Example 30, 4-(2-methoxyethyl)-6-(4-methyl-6-(1H-1,2,4-triazol-3-yl)pyridin-3-yl)-3,4-dihydropyrazino[2,3-b]pyrazin-2(1H)-one], the figure is 0.005 to 250 nM.
As for `O=C1CN(CCC2CCOCC2)c2nc(-c3cccc(-c4ncn[nH]4)c3)cnc2N1` [Example 31, 6-(3-(1H-1,2,4-triazol-5-yl)phenyl)-4-(2-(tetrahydro-2H-pyran-4-yl)ethyl)-3,4-dihydropyrazino[2,3-b]pyrazin-2(1H)-one], the IC50 fell in the range of 1000 to 10000 nM.
As for `COCCN1CC(=O)Nc2ncc(-c3cnc(C(N)=O)cc3C)nc21` [Example 32, 5-(8-(2-methoxyethyl)-6-oxo-5,6,7,8-tetrahydropyrazino[2,3-b]pyrazin-2-yl)-4-methylpicolinamide], the figure is 0.005 to 250 nM.
With `NC(=O)c1cccc(-c2cnc3c(n2)N(CCC2CCOCC2)CC(=O)N3)c1` [Example 33, 3-(6-oxo-8-(2-(tetrahydro-2H-pyran-4-yl)ethyl)-5,6,7,8-tetrahydropyrazino[2,3-b]pyrazin-2-yl)benzamide], the IC50 is 500 to 1000 nM.
With `N#Cc1cccc(-c2cnc3c(n2)N(CCC2CCOCC2)CC(=O)N3)c1` [Example 34, 3-(6-oxo-8-(2-(tetrahydro-2H-pyran-4-yl)ethyl)-5,6,7,8-tetrahydropyrazino[2,3-b]pyrazin-2-yl)benzonitrile] the figure was 500 to 1000 nM.
With `CO[C@H]1CC[C@H](N2CC(=O)Nc3ncc(-c4cnc(C(N)=O)cc4C)nc32)CC1` [Example 35, 5-(S-(trans-4-methoxycyclohexyl)-6-oxo-5,6,7,8-tetrahydropyrazino[2,3-b]pyrazin-2-yl)-4-methylpicolinamide] the figure was 0.005 to 250 nM; with `O=C1CN(CCC2CCOCC2)c2nc(-c3cnc4nc[nH]c4c3)cnc2N1` [Example 36, 6-(1H-imidazo[4,5-b]pyridin-6-yl)-4-(2-(tetrahydro-2H-pyran-4-yl)ethyl)-3,4-dihydropyrazino[2,3-b]pyrazin-2(1H)-one], 500 to 1000 nM.
With `O=C1CN(CCC2CCOCC2)c2nc(-c3ccc4cn[nH]c4c3)cnc2N1` [Example 37, 6-(1H-indazol-6-yl)-4-(2-(tetrahydro-2H-pyran-4-yl)ethyl)-3,4-dihydropyrazino[2,3-b]pyrazin-2(1H)-one] the figure was 1000 to 10000 nM; with `CO[C@H]1CC[C@@H](N2CC(=O)Nc3ncc(-c4ccc(-c5nnc[nH]5)nc4C)nc32)C1` [Example 38, 4-((1R,3S)-3-methoxycyclopentyl)-6-(2-methyl-6-(4H-1,2,4-triazol-3-yl)pyridin-3-yl)-3,4-dihydropyrazino[2,3-b]pyrazin-2(1H)-one], 0.005 to 250 nM; with `CO[C@@H]1CC[C@H](N2CC(=O)Nc3ncc(-c4ccc(-c5nnc[nH]5)nc4C)nc32)C1` [Example 39, 4-((1S,3R)-3-methoxycyclopentyl)-6-(2-methyl-6-(4H-1,2,4-triazol-3-yl)pyridin-3-yl)-3,4-dihydropyrazino[2,3-b]pyrazin-2(1H)-one], 0.005 to 250 nM.
As for `CO[C@@H]1CC[C@@H](N2CC(=O)Nc3ncc(-c4ccc(-c5nnc[nH]5)nc4C)nc32)C1` [Example 40, 4-((1R,3R)-3-methoxycyclopentyl)-6-(2-methyl-6-(4H-1,2,4-triazol-3-yl)pyridin-3-yl)-3,4-dihydropyrazino[2,3-b]pyrazin-2(1H)-one], the IC50 was in the range of 0.005 to 250 nM.
In the case of `CO[C@H]1CC[C@H](N2CC(=O)Nc3ncc(-c4ccc(-c5nnc[nH]5)nc4C)nc32)C1` [Example 41, 4-((1S,3S)-3-methoxycyclopentyl)-6-(2-methyl-6-(4H-1,2,4-triazol-3-yl)pyridin-3-yl)-3,4-dihydropyrazino[2,3-b]pyrazin-2(1H)-one], the IC50 lay in the range of 0.005 to 250 nM.
With `O=C1CN(CCC2CCOCC2)c2nc(-c3cnc4[nH]ccc4c3)cnc2N1` [Example 43, 6-(1H-pyrrolo[2,3-b]pyridin-5-yl)-4-(2-(tetrahydro-2H-pyran-4-yl)ethyl)-3,4-dihydropyrazino[2,3-b]pyrazin-2(1H)-one] the figure was 0.005 to 250 nM; with `O=C1CN(CCC2CCOCC2)c2nc(-c3ccc4cc[nH]c4c3)cnc2N1` [Example 44, 6-(1H-indol-6-yl)-4-(2-(tetrahydro-2H-pyran-4-yl)ethyl)-3,4-dihydropyrazino[2,3-b]pyrazin-2(1H)-one], 250 to 500 nM.
Turning to `CO[C@H]1CC[C@@H](CN2CC(=O)Nc3ncc(-c4ccc(-c5nnc[nH]5)nc4C)nc32)C1` [Example 46, 4-(((1R,3S)-3-methoxycyclopentyl)methyl)-6-(2-methyl-6-(4H-1,2,4-triazol-3-yl)pyridin-3-yl)-3,4-dihydropyrazino[2,3-b]pyrazin-2(1H)-one], the half-maximal inhibitory concentration (IC50) was 0.005 to 250 nM.
With `CO[C@@H]1CC[C@H](CN2CC(=O)Nc3ncc(-c4ccc(-c5nnc[nH]5)nc4C)nc32)C1` [Example 47, 4-(((1S,3R)-3-methoxycyclopentyl)methyl)-6-(2-methyl-6-(4H-1,2,4-triazol-3-yl)pyridin-3-yl)-3,4-dihydropyrazino[2,3-b]pyrazin-2(1H)-one], the IC50 is 0.005 to 250 nM.
Regarding `Cc1c(-c2cnc3c(n2)N(CCC2CCOCC2)CC(=O)N3)ccc(-c2nnc[nH]2)c1F` [Example 48, 6-(3-fluoro-2-methyl-4-(4H-1,2,4-triazol-3-yl)phenyl)-4-(2-(tetrahydro-2H-pyran-4-yl)ethyl)-3,4-dihydropyrazino[2,3-b]pyrazin-2(1H)-one], the IC50 was 0.005 to 250 nM.
As for `COCCN1CC(=O)Nc2ncc(-c3ccc(-c4nnc[nH]4)c(F)c3C)nc21` [Example 49, 6-(3-fluoro-2-methyl-4-(4H-1,2,4-triazol-3-yl)phenyl)-4-(2-methoxyethyl)-3,4-dihydropyrazino[2,3-b]pyrazin-2(1H)-one], the figure is 0.005 to 250 nM; as for `Cc1cc(-c2nnc[nH]2)ncc1-c1cnc2c(n1)N(CC1CCOCC1)C(C)(C)C(=O)N2` [Example 50, 3,3-dimethyl-6-(4-methyl-6-(4H-1,2,4-triazol-3-yl)pyridin-3-yl)-4-((tetrahydro-2H-pyran-4-yl)methyl)-3,4-dihydropyrazino[2,3-b]pyrazin-2(1H)-one], 0.005 to 250 nM.
